The record followed here is patent US20230373989A1, “N-PHENYLAMINOCARBONYL PYRIDINO-, PYRIMIDINO AND BENZO-TROPANES AS MODULATORS OF GPR65” (PATHIOS THERAPEUTICS LIMITED, priority 2020, published 2023).

Broadly, the IC50 is the midpoint of a concentration-inhibition curve.

For the first experiment, the target named is T1, human recombinant GPR65 (Homo sapiens, UniProt Q8IYL9).
T1 construct: host or cells: 1321N1 human astrocytoma cells (1321N1-hrGPR65)
T1 sequence (Q8IYL9 whole entry): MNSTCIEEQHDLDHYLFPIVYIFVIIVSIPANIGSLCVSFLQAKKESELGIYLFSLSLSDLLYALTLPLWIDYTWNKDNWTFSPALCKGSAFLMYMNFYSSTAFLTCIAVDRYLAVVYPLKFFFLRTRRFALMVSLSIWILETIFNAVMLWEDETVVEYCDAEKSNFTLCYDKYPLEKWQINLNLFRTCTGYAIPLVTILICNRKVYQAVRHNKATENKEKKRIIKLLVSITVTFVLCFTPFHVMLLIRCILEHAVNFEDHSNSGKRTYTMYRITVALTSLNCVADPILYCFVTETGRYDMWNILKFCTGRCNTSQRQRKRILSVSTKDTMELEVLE
Put plainly: Human GPR65 cAMP HTRF antagonist assay.
Settings: not given
It counts as cell-based. An excerpt: In one preferred embodiment, the compound prevents the increase in cytoplasmic cAMP levels expected following GPR65 activation at acidic pH. This prevention of cAMP accumulation in turn prevents downstream signalling through ICER, as described above. The “Human GPR65 cyclic adenosine monophosphate (cAMP) Homogeneous Time Resolved Fluorescence (HTRF) antagonist assay”, or simply “cAMP assay”, as described in the accompanying examples, can be used to measure the potency of GPR65 modulators, which is expressed as the concentration of compound required to reduce the increase in cAMP concentration upon GPR65 activation by 50% (i.e. an IC50).
Human GPR65 Cyclic Adenosine Monophosphate (cAMP) Homogeneous Time Resolved Fluorescence (HTRF) Antagonist Assay Procedure
IC50 data was obtained by the following procedure:
1321N1 human astrocytoma cells stably expressing human recombinant GPR65 (1321N1-hrGPR65 cells, EuroscreenFast) were cultured according to the vendor's instructions.
Compounds were tested for their ability to antagonise GPR65, through measuring the concentration of cytoplasmic cAMP following treatment of the cells at a pH of 7.2 to activate GPR65 signalling and addition of the compound to be tested. The extent to which the expected rise in cAMP concentration upon GPR65 activation was suppressed by the added compound is indicative of its potency. The assay was carried out according to EuroscreenFast assay methodology as follows.
On the day of the assay, test compounds were added to 384-well, low volume, white microtiter plates by acoustic dispensing. KRH buffer (5 mM KCl, 1.25 mM MgSO4, 124 mM NaCl, 25 mM HEPES, 13.3 mM Glucose, 1.25 mM KH2PO4 and 1.45 mM CaCl2) was adjusted to pH 6.5, pH 7.6 and pH 8.4 by adding NaOH. 1321N1-hGPR65 cells were rapidly thawed and diluted in KRH, pH 7.6 prior to centrifugation at 300×g for 5 min and resuspension in assay buffer (KRH, pH 7.6, supplemented with 1 mM 3-isobutyl-1-methylxanthine (IBMX) and 200 μM ethylenediaminetetraacetic acid (EDTA)). Cells were added to assay plates at a density of 2,000 cells per well in a volume of 5 μl. Assay plates were briefly centrifuged at 100×g and then incubated at room temperature for 30 min. Cells were stimulated by the addition of 5 μL KRH, pH 6.5, to achieve an assay pH of 7.2, while control wells received 5 μl KRH, pH 8.4 to achieve an assay pH of 7.9. Assay plates were briefly centrifuged at 100×g and then incubated at room temperature for 30 min.
Accumulation of cAMP was detected by cAMP HTRF kit (Cisbio). d2-labeled cAMP and cryptate-labeled anti-cAMP antibody in Lysis and Detection Buffer (Cisbio) were added to assay plates, and the plates were incubated at room temperature for 1 h. HTRF measurements were performed using a Pherastar FSX instrument. Acceptor and donor emission signals were measured at 665 nm and 620 nm, respectively, and HTRF ratios were calculated as signal665 nm/signal620 nm×104. Data were normalised to high and low control values and fitted with 4-parameter logistic regression to determine hGPR65 IC50 values for the test compounds, which are shown in Table 1.
As to `O=C(Nc1ccc(C(F)(F)F)c(Cl)c1)N1C2CCC1c1cnc(F)nc1C2` (racemic) [Compound 45, (±)-N-(3-Chloro-4-(trifluoromethyl)phenyl)-2-fluoro-6,7,8,9-tetrahydro-5H-5,8-epiminocyclohepta[d]pyrimidine-10-carboxamide], the IC50 was less than 500 nM.

Turning to `O=C(Nc1ccc(Cl)c(Cl)c1)N1C2CCC1c1cnc(F)nc1C2` (racemic) [Compound 46, (±)-N-(3,4-Dichlorophenyl)-2-fluoro-6,7,8,9-tetrahydro-5H-5,8-epiminocyclohepta[d]pyrimidine-10-carboxamide], the 50% inhibitory concentration (IC50) is less than 500 nM.

Turning to `O=C(Nc1ccc(Cl)c(Cl)c1)N1C2CCC1c1cncnc1C2` (racemic) [Compound 48, (±)-N-(3,4-dichlorophenyl)-6,7,8,9-tetrahydro-5H-5,8-epiminocyclohepta[d]pyrimidine-10-carboxamide], the concentration for half-maximal inhibition (IC50) is less than 500 nM.

`O=C(Nc1ccc(Cl)c(Cl)c1)N1C2CCC1c1cc[n+]([O-])cc1C2` (racemic) [Compound 58, (±)-10-((3,4-Dichlorophenyl)carbamoyl)-6,7,8,9-tetrahydro-5H-5,8-epiminocyclohepta[c]pyridine 2-oxide]: the IC50 is less than 500 nM.

As to `O=C(Nc1ccc(Cl)c(Cl)c1)N1C2CCC1c1ccc(Cl)cc1C2` (racemic) [Compound 60, (±)-2-Chloro-N-(3,4-dichlorophenyl)-6,7,8,9-tetrahydro-5H-5,8-epiminobenzo[7]annulene-10-carboxamide], the concentration for half-maximal inhibition (IC50) was less than 500 nM.

On to `O=C(Nc1ccc(Cl)c(Cl)c1)N1C2CCC1c1cnc(F)cc1C2` (racemic) [Compound 67, (±)-N-(3,4-Dichlorophenyl)-3-fluoro-6,7,8,9-tetrahydro-5H-6,9-epiminocyclohepta[c]pyridine-10-carboxamide], for which the IC50 lay in the range of 500 to 5000 nM.

The same experiment, now with this note: 1321N1-hrGPR65 cells, assay pH 7.2, cAMP HTRF; read-out: hGPR65 IC50 (activity class).
For `O=C(Nc1ccc(C(F)(F)F)c(Cl)c1)N1C2CCC1c1cnccc1C2` (racemic) [Compound 37, (±)-N-(3-Chloro-4-(trifluoromethyl)phenyl)-6,7,8,9-tetrahydro-5H-6,9-epiminocyclohepta[c]pyridine-10-carboxamide], the IC50 fell in the range of 500 to 5000 nM.

Consider `O=C(Nc1ccc(C(F)(F)F)c(Cl)c1)N1C2CCC1c1c[nH]c(=O)nc1C2=NO` (racemic) [Compound 47, (±)-N-(3-Chloro-4-(trifluoromethyl)phenyl)-9-(hydroxyimino)-2-oxo-3,5,6,7,8,9-hexahydro-2H-5,8-epiminocyclohepta[d]pyrimidine-10-carboxamide], for which the IC50 was 500 to 5000 nM.

For the compound `O=C(Nc1ccc(Cl)cc1)N1C2CCC1c1cncnc1C2` (racemic) [Compound 49, (±)-N-(4-Chlorophenyl)-6,7,8,9-tetrahydro-5H-5,8-epiminocyclohepta[d]pyrimidine-10-carboxamide], the IC50 is more than 5000 nM.

For `O=C(Nc1cccc(Cl)c1)N1C2CCC1c1cncnc1C2` (racemic) [Compound 50, (±)-N-(3-Chlorophenyl)-6,7,8,9-tetrahydro-5H-5,8-epiminocyclohepta[d]pyrimidine-10-carboxamide], the concentration for half-maximal inhibition (IC50) is more than 5000 nM.

For the compound `O=C(Nc1cc(Cl)ccc1F)N1C2CCC1c1cncnc1C2` (racemic) [Compound 51, (±)-N-(5-Chloro-2-fluorophenyl)-6,7,8,9-tetrahydro-5H-5,8-epiminocyclohepta[d]pyrimidine-10-carboxamide], the IC50 was in the range of 500 to 5000 nM.

Turning to `O=C(Nc1ccc(C(F)(F)F)c(Cl)c1)N1C2CCC1c1ccccc1C2` (racemic) [Compound 54, (±)-N-(3-Chloro-4-(trifluoromethyl)phenyl)-6,7,8,9-tetrahydro-5H-5,8-epiminobenzo[7]annulene-10-carboxamide], the half-inhibitory concentration (IC50) fell in the range of 500 to 5000 nM.

In the case of `O=C(Nc1ccc(Cl)c(C(F)(F)F)c1)N1C2CCC1c1ccccc1C2` (racemic) [Compound 55, (±)-N-(4-Chloro-3-(trifluoromethyl)phenyl)-6,7,8,9-tetrahydro-5H-5,8-epiminobenzo[7]annulene-10-carboxamide], the concentration for half-maximal inhibition (IC50) lay in the range of 500 to 5000 nM.

In the case of `COc1ccc2c(c1)CC1CCC2N1C(=O)Nc1ccc(Cl)c(Cl)c1` (racemic) [Compound 56, (±)-N-(3,4-Dichlorophenyl)-2-methoxy-6,7,8,9-tetrahydro-5H-5,8-epiminobenzo[7]annulene-10-carboxamide], the half-maximal inhibitory concentration (IC50) was in the range of 500 to 5000 nM.

As to `O=C(Nc1ccc(Cl)c(Cl)c1)N1C2CCC1c1ccc(O)cc1C2` (racemic) [Compound 57, (±)-N-(3,4-Dichlorophenyl)-2-hydroxy-6,7,8,9-tetrahydro-5H-5,8-epiminobenzo[7]annulene-10-carboxamide], the IC50 is 500 to 5000 nM.

Turning to `O=C(Nc1ccc(Cl)c(Cl)c1)N1C2CCC1c1c[n+]([O-])ccc1C2` (racemic) [Compound 59, (±)-10-((3,4-Dichlorophenyl)carbamoyl)-6,7,8,9-tetrahydro-5H-6,9-epiminocyclohepta[c]pyridine 2-oxide], the 50% inhibitory concentration (IC50) is more than 5000 nM.

For `Nc1nccc2c1C1CCC(C2)N1C(=O)Nc1ccc(Cl)c(Cl)c1` (racemic) [Compound 61, (±)-1-Amino-N-(3,4-dichlorophenyl)-6,7,8,9-tetrahydro-5H-6,9-epiminocyclohepta[c]pyridine-10-carboxamide], the IC50 lay in the range of 500 to 5000 nM.

Consider `Nc1cc2c(cn1)C1CCC(C2)N1C(=O)Nc1ccc(Cl)c(Cl)c1` (racemic) [Compound 62, (±)-3-amino-N-(3,4-dichlorophenyl)-6,7,8,9-tetrahydro-5H-6,9-epiminocyclohepta[c]pyridine-10-carboxamide], for which the half-inhibitory concentration (IC50) was more than 5000 nM.

Turning to `Nc1nccc2c1CC1CCC2N1C(=O)Nc1ccc(Cl)c(Cl)c1` (racemic) [Compound 63, (±)-1-amino-N-(3,4-dichlorophenyl)-6,7,8,9-tetrahydro-5H-5,8-epiminocyclohepta[c]pyridine-10-carboxamide], the IC50 was more than 5000 nM.

Regarding `Nc1cc2c(cn1)CC1CCC2N1C(=O)Nc1ccc(Cl)c(Cl)c1` (racemic) [Compound 64, (±)-3-Amino-N-(3,4-dichlorophenyl)-6,7,8,9-tetrahydro-5H-5,8-epiminocyclohepta[c]pyridine-10-carboxamide], the half-maximal inhibitory concentration (IC50) fell in the range of 500 to 5000 nM.

In the case of `CC(C)(C)Nc1nccc2c1CC1CCC2N1C(=O)Nc1ccc(Cl)c(Cl)c1` (racemic) [Compound 65, (±)-1-(tert-Butylamino)-N-(3,4-dichlorophenyl)-6,7,8,9-tetrahydro-5H-5,8-epiminocyclohepta[c]pyridine-10-carboxamide], the IC50 is 500 to 5000 nM.

As to `CC(C)(C)Nc1cc2c(cn1)CC1CCC2N1C(=O)Nc1ccc(Cl)c(Cl)c1` (racemic) [Compound 66, (±)-3-(tert-Butylamino)-N-(3,4-dichlorophenyl)-6,7,8,9-tetrahydro-5H-5,8-epiminocyclohepta[c]pyridine-10-carboxamide], the 50% inhibitory concentration (IC50) was in the range of 500 to 5000 nM.

As to `O=C(Nc1ccc(Cl)c(Cl)c1)N1C2CCC1c1c(ccnc1F)C2` (racemic) [Compound 68, (±)-N-(3,4-Dichlorophenyl)-1-fluoro-6,7,8,9-tetrahydro-5H-6,9-epiminocyclohepta[c]pyridine-10-carboxamide], the 50% inhibitory concentration (IC50) was 500 to 5000 nM.

Consider `O=C(Nc1ccc(Cl)c(Cl)c1)N1C2CCC1c1cc(F)ncc1C2` (racemic) [Compound 69, (±)-N-(3,4-Dichlorophenyl)-3-fluoro-6,7,8,9-tetrahydro-5H-5,8-epiminocyclohepta[c]pyridine-10-carboxamide], for which the IC50 lay within 500 to 5000 nM.
